Assay results as given in patent publication US4604383A, “Pyrrolidin-2-ones and medicaments containing them” (Societe Anonyme Styled: SANOFI, priority 1983, dated 1986).
Read-outs that look alike come from different tables or passages of the source.

Experiments:
[1] = Antagonism of convulsions and of mortality caused by bicucullin; assay type: in vivo, mouse (CD Charles Rivers mice); conditions: mouse
Procedure: (§1) The anticonvulsant effect of the products in the mouse was evaluated on a model of convulsions caused by electric shock, and on 2 models of convulsions induced by chemical agents: bicuculline and 3-mercaptopropionic acid.
(§2) The batches were constituted by 10 CD Charles Rivers mice of weights comprised between 20 and 22 g. The products were administered orally, 60 minutes before the bicucullin (0.8 mg/kg, i.v.).

[2] = Antagonism to the convulsions caused by 3-mercaptopropionic acid; assay type: in vivo, mouse (CD Charles Rivers mice); conditions: mouse, oral, 60 min before 3-mercaptopropionic acid 60 mg/kg s.c.; probit method, confidence limits in parentheses, p <= 0.05; read-out: Median effective dose (ED50) of antagonism to convulsions caused by 3-mercaptopropionic acid
Procedure: as §1
(§3) The batches were constituted by 10 CD Charles Rivers mice of weights comprised between 20 and 22 g. The products were administered orally 60 minutes before the 3-mercaptopropionic acid (60 mg/kg s.c.).

[3] = Effect on spontaneous motility (Boissier and Simon activity test, actimetric cages); assay type: in vivo, mouse (CD1 Charles Rivers female mice); conditions: mouse
Procedure: The spontaneous motility of the animals was measured by means of the activity test developed by Boissier and Simon, Arch. Int. Pharmacocyn., 1965, 158, 212-221. The equipment is composed of actimetric cages, type Apelab (26×21.5×10 cm), traversed by two light rays which fall on a photoelectric cell. The batches were constituted by CD1 Charles Rivers female mice, of weight comprised between 20 and 24 g. The animals were placed individually in cages 45 minutes after oral administration of the products at the dose of 100 mg/kg. Each traversal by a light beam was counted by an individual counter. The scores corresponding to the movements of the animals were recorded for 10 minutes, and compared with the scores taken on batches of control animals, treated only with the vehicle (5% gum arabic).

[4] = Acute toxicity, determination of the lethal dose in the mouse; conditions: in vivo, po, read-out: Percent toxicity (animals which die in 72 hours)
Procedure: The toxicity of the products according to the invention was studied: the products were administered orally, to batches of 5 CD Charles Rivers female mice, of weights comprised between 20 and 24 g. The toxicity was noted during the 72 hours which followed the administration of the products.
The results expressed as a percentage of animals which die in the 72 hours following the oral administration of the products, are noted in the preceding table.

[5] = Evaluation of the anticonvulsant activity (electric shock, bicucullin and 3-mercaptopropionic acid taken together); assay type: in vivo; conditions: mouse, oral
Procedure: as §1
(§4) The test was slightly modified from that of Swinyard et al., J. Pharm. Exp. Ther., 1952, 106, 319-330 and Asami et al. Arzneim. Forsch., 1974, 24 (1), 1563-1568. The equipment was composed of a Racia shock generator provided with two occular electrodes delivering a current of 60 volts for 0.3 seconds. The batches were constituted by 10 CD1 Charles Rivers mice of weight comprised between 20 and 24 g. The products were administered orally, 60 minutes before the electroshock.
as §2, §3

[6] = Antagonism of the convulsions induced by electric shock; assay type: in vivo, mouse (CD1 Charles Rivers mice); conditions: mouse, at 200 mg/kg p.os.
Procedure: as §1, §4

[7] = Potentiation of narcosis with pentobarbital (loss of righting reflex); assay type: in vivo, mouse (CD1 Charles Rivers mice); conditions: mouse
Procedure: For the purpose of evaluating the hypnogenic power of the products, their capacity to potentiate the effects of a subnarcotic dose of pentabarbital in the mouse was studied. The batches were constituted by 10 CD1 Charles Rivers mice, of weight comprised between 20 and 24 g.
The pentobarbital (20 mg/kg, i.p.) was administered 60 minutes after administration of the products. The drowsiness criterion taken was the loss of the righting reflex.

O=C1CCC(Cc2ccccc2)N1 (stereo not drawn) [Compound A, 5-phenylmethyl 2-pyrrolidinone, reference compound]
Antagonism to bicucullin mortality ([1]; at 200 (mg/kg p.o.)): 30%
Median effective dose (ED50) of the antagonism to the effects of bicucullin: Tonic convulsions ([1]; oral, 60 min before bicucullin 0.8 mg/kg i.v., probit method, confidence limits in parentheses, p < 0.05): inactive at 200
ED50 [2]: > 100 mg/kg
Locomotor activity, score percent/controls ([3]; 100 mg/kg p.os., 45 min after administration, 10 min recording, * P <= 0.05, ** P <= 0.01): +1.2%
Effect on spontaneous motility (in words) ([3]; oral dose of 100 mg/kg): does not act on the spontaneous motility
mortality at 72 h ([4]; 250 mg/kg p.os.): 0%
mortality at 72 h ([4]; 500 mg/kg p.os.): 0%
mortality at 72 h ([4]; 1000 mg/kg p.os.): 60%
Anticonvulsant properties (in words) [5]: does not show anticonvulsant properties
Inhibition of electric shock convulsions [6]: 40%
Hypnogenic effect / potentiation of narcosis with pentobarbital (in words) ([7]; oral): devoid of hyponogenic effect
Potentiation of pentobarbital, percent of animals in narcosis ([7]; products at 100 mg/kg p.os., 60 min before pentobarbital 20 mg/kg i.p.): 0%
